This note sets out measurements from patent US12606541B2, “PPARg modulators and methods of use” (Eisai R&D Management Co., Ltd., priority 2020, dated 2026).

One experiment concerns the target T1, His6-TEV-PPARγ-(234-505) (Homo sapiens, UniProt P37231).
T1 construct: The His6-TEV-PPARγ-(234-505) protein for assay was expressed and purified; TEV cleavage site (N); made in house
T1 sequence (P37231 234-505): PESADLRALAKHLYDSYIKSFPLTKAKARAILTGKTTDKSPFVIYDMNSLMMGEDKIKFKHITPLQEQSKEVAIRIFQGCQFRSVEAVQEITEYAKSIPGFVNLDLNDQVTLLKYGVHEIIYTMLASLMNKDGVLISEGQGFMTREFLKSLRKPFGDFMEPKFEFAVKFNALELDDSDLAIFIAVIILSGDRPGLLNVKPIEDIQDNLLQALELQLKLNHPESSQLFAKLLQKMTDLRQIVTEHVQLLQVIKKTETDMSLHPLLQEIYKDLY
The experiment is described as follows: TR-FRET Assay to Measure Co-R Peptide Recruitment to PPARγ. In kind it is biochemical. The conditions noted are these: Co-R peptide (SMRT-ID2) recruitment; top final concentration 20 μM; read-out: TR-FRET i-Ag; AC50. Put shortly:
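His-tagged PPARγ (or controls) was preincubated with compound for 20 minutes at room temperature, then 5 nM anti-His terbium antibody and 200 nM FITC-labeled SMRT-ID2 corepressor peptide (final) were added for a further hour. TR-FRET signal was normalized to percent response using 500 nM T0070907 and DMSO controls.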

In another experiment the test system is UM-UC-9 engineered cells. Briefly: Cell proliferation / short-term viability assay, CellTiter-Glo 144 h. In kind it is cell-based, human. The following applies: read-out: CTGlo 144 h UMUC9.5, G150. The gist of the method: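 UM-UC-9 engineered assay-ready cells seeded at 500 cells/well in high-glucose DMEM/10% FBS, treated from dose-response plates, grown at 37° C, 5% CO2. CellTiter-Glo 2.0 luminescence read on day 7, with a day-0 pretreatment plate as T0 reference and DMSO wells as negative control.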

As to “(S)—N-((4S,7r)-3,3-difluoro-1-oxaspiro[3.5]nonan-7-yl)-4-(5-(5-fluoro-2-methoxypyridin-4-yl)-1H-pyrazole-3-carbonyl)-4-azaspiro[2.5]octane-7-carboxamide and (S)—N-((4R,7s)-3,3-difluoro-1-oxaspiro[3.5]nonan-7-yl)-4-(5-(5-fluoro-2-methoxypyridin-4-yl)-1H-pyrazole-3-carbonyl)-4-azaspiro[2.5]octane-7-carboxamide [Example 374]”, the AC50 on His6-TEV-PPARγ-(234-505) was determined as 13.1 nM. In addition, the IC50 with UM-UC-9 engineered cells was 15.8 nM.
Consider “(S)—N—((R)-1-(3-chloropyridin-2-yl)ethyl)-4-(5-(5-fluoro-2-methoxypyridin-4-yl)-1H-pyrazole-3-carbonyl)-4-azaspiro[2.5]octane-7-carboxamide and (S)—N—((S)-1-(3-chloropyridin-2-yl)ethyl)-4-(5-(5-fluoro-2-methoxypyridin-4-yl)-1H-pyrazole-3-carbonyl)-4-azaspiro[2.5]octane-7-carboxamide [Example 360]”, for which, at His6-TEV-PPARγ-(234-505), the AC50 was 21.8 nM. Further, the IC50 in the experiment on UM-UC-9 engineered cells turned out to be 8.7 nM.
“(S)—N—((S)-1-(5-cyclopropyl-1,3,4-oxadiazol-2-yl)ethyl)-4-(5-(5-fluoro-2-methoxypyridin-4-yl)-1H-pyrazole-3-carbonyl)-4-azaspiro[2.5]octane-7-carboxamide and (S)—N—((R)-1-(5-cyclopropyl-1,3,4-oxadiazol-2-yl)ethyl)-4-(5-(5-fluoro-2-methoxypyridin-4-yl)-1H-pyrazole-3-carbonyl)-4-azaspiro[2.5]octane-7-carboxamide [Example 395]”: the AC50 on His6-TEV-PPARγ-(234-505) came to 274 nM. Besides, the IC50 in the experiment on UM-UC-9 engineered cells was 761 nM.
On to “(S)—N—((S)-3,4-dihydro-2H-pyrano[3,2-b]pyridin-4-yl)-4-(5-(5-fluoro-2-methoxypyridin-4-yl)-1H-pyrazole-3-carbonyl)-4-azaspiro[2.5]octane-7-carboxamide and (S)—N—((R)-3,4-dihydro-2H-pyrano[3,2-b]pyridin-4-yl)-4-(5-(5-fluoro-2-methoxypyridin-4-yl)-1H-pyrazole-3-carbonyl)-4-azaspiro[2.5]octane-7-carboxamide [Example 366]”, for which the AC50 at His6-TEV-PPARγ-(234-505) worked out at 28.8 nM. For the same substance, the IC50 in the experiment with UM-UC-9 engineered cells stood at 41.4 nM.
